Test results from patent publication US20100196465A1, “STABLE PHARMACEUTICAL COMPOSITION OF A WATER-SOLUBLE VINORELBINE SALT” (Pierre Fabre Medicament, priority 2007, published 2010).

Test: Stability test at 5° C. in a sealed package after 6 and 12 months (impurity content)
Format: physicochemical
Conditions: external 20% humidity, % of the total weight of the composition
Description: The compositions as gelatin capsules are housed in a sealed package (T0) and stored at 5° C. with an external 20% humidity rate. Next, the impurity content (in % of the total weight of the composition) is dosed after 6 and 12 months (T6 and T12 respectively) and compared to that dosed beforehand at T0. The difference between the percentages at T6 and T0 and then T12 and T0 indicate the change in the impurity content.
It is compared with that obtained for freeze-dried vinorelbine ditartrate stored under the same conditions.
This operating procedure was applied in the following Examples 2 to 5.

CCC1=C[C@@H]2CN(C1)Cc1c([nH]c3ccccc13)[C@@](C(=O)OC)(c1cc3c(cc1OC)N(C)[C@H]1[C@@](O)(C(=O)OC)[C@H](OC(C)=O)[C@]4(CC)C=CCN5CC[C@]31[C@@H]54)C2 [Vinorelbine ditartrate, vinorelbine ditartrate]
Change in impurity content T0 to T12: T0 to T12: +0.79%
